Assays:
AsPC-1 spheroids = assay: Three-dimensional spheroid growth inhibition, APH assay; type: cell-based, human; details: for Circularity and solidity of spheroids: AsPC-1 spheroids, after 72 h of treatment, ImageJ; for IC50: Homo sapiens, ASPC1, APH assay, 72 h treatment, read-out: IC50 in AsPC-1 three-dimensional spheroid model
Method: Three-dimensional spheroid cell cultures were produced based on the liquid overlay technique. Agarose solution in RPMI (1.5% w/v) was prepared and sterilized in an autoclave. Then, each well of 96-well flat-bottom plates was coated with 50 µl of agarose solution and was left to solidify at room temperature for at least 2 h. One hundred twenty-five µl of a suspension of AsPC-1 cells in RPMI medium containing 10% FBS at a density of 2 × 10^5 cells/ml was added to each well. Afterwards, the plates were centrifuged at 700g for 5 min and incubated under standard culture conditions. After 48 h of incubation, which allowed one spheroid to be formed in each well, 100 µl of the medium was removed, and spheroids were treated with synthesized derivatives diluted in a fresh medium containing 10% FBS for 72 h.
At the final step, cell viability was measured by the acid phosphatase (APH) assay, which is based on the hydrolysis of the p-nitrophenyl phosphate (pNPP) and its conversion to yellow p-nitrophenol by intracellular acid phosphatases present in viable cells. Briefly, 160 µl of the medium was removed and 200 µl of a solution containing 2 mg/ml pNPP dissolved in 0.1 M sodium acetate at pH 4.8 were added to each well and incubated for 120 min at 37 °C. Afterwards, 10 µl of NaOH 1 M was added to each well to stop the reaction, and the absorbance was recorded at 405 nm within 10 min by a Bio-Tek microplate reader (Model Synergy HTX). The images of spheroids were recorded by a bright field microscope (Nikon model DS-Ri2) and analyzed with Nikon NIS-Elements AR imaging software for Windows version 4.30.

KIT (h) = biological target: T1, KIT (h) (Homo sapiens, UniProt P10721); assay: Radiometric kinase panel assay; type: biochemical; details: Km ATP
T1 construct: purchased Eurofins Discovery

AsPC-1 cells [1] = assay: Apoptosis induction, annexin V-FITC/PI flow cytometry; type: cell-based, human; details: 10 μM, 48 h; for Late apoptosis: untreated 4.8%; for Early apoptosis: untreated 7.6%; for Percentage of total apoptosis: untreated 12.4%
Method: The ability of apoptosis induction of synthetic compounds was evaluated by FACS analysis with Annexin V-FITC/propidiuim iodide (PI) staining kit (BD Pharmingen, San Diego, CA, USA). AsPC-1 cells were cultured in 6-well plates at a density of 1 × 10^5 cells/ml. After 24 h, the synthesized derivatives at different concentrations were added and incubated for 48 h. After addition of trypsin to each well, the cells were harvested, transferred to 1.5 ml tubes and washed twice with PBS. At the final step, the cells were stained with Annexin V-FITC (5 µl) and PI (5 µl), followed by analysis by a FACS Calibur flow cytometer (Becton Dickinson, Mountain View, CA, USA). The effects of synthetic derivatives on the apoptosis rate were evaluated based on the fluorescence signal of 20,000 events.

AsPC-1 cells [2] = assay: SRB antiproliferative assay, monolayer culture; type: cell-based, human; details: Homo sapiens, ASPC1, 72 h, mean ± S.E.M.
Method: (§1) EBC-1 (human lung […] cells with MET gene amplification) and Mia-Paca-2 (human PDAC cells) were obtained from Japanese Collection of Research Bio Resources Cell Bank (JCRB). AsPC-1 (human PDAC), MKN-45 (human gastric adenocarcinoma cells with MET gene amplification), HT-29 (human colorectal adenocarcinoma), and K562 cells (human chronic myelogenous leukemia) were obtained from the Iranian Biological Resource Centre, Tehran, Iran. AsPC-1, EBC-1, MKN-45, and K562 cells were cultured in RPMI 1640 medium containing 10% heat-inactivated fetal bovine serum (FBS) and 1% penicillin/streptomycin. Mia-Paca-2 and HT-29 cells were grown in DMEM low glucose, containing 10% and 20% heat-inactivated FBS, resoectively and 100 U/ml penicillin/streptomycin. All cells were grown in monolayer cultures at 37 °C in a humidified incubator with 5% CO2.
(§2) Antiproliferative effects of synthetic compounds were evaluated by the SRB assay as described previously. Cancer cells were trypsinized, homogenous cell suspensions were prepared and 100 µl of cell suspensions were cultured at the densities of 5 × 10^4 cells/ml (for AsPC-1 and Mia-Paca-2), 4 × 10^4 cells/m (for EBC-1 and MKN-45), 3 × 10^4 cells/ml (for K562) and 1 × 10^4 cells/ml (for HT-29) in 96-well flat-bottom plates. After 24 h of incubation to allow cells to attach and resume optimal growth, the synthetic compounds dissolved in DMSO and diluted in the growth medium were added. One hundred µl of synthesized derivatives were added at different concentrations in triplicate and incubated for an additional 72 h at 37 °C. The cells were then fixed by gentle addition of 50 μl cold trichloroacetic acid (TCA) 50% (w/v, 10% final concentration) and incubated for 60 min at 4 °C. Then, the supernatant was discarded, and the plates were washed four times with distilled water and air dried. Afterwards, 100 μl of SRB solution 0.04% (w/v) dissolved in 1% acetic acid was added to each well, and plates were incubated for 15 min at room temperature. At the next step, the unbound dye was removed by washing four times with 1% acetic acid and the plates were air dried. The bound stain was finally solubilized with 150 μl of 10 mM Tris base solution, and the absorbance was recorded at a wavelength of 540 nm with a Bio-Tek microplate reader (Model Synergy HTX).

EBC-1 cells = assay: SRB antiproliferative assay, monolayer culture; type: cell-based, human; details: Homo sapiens, EBC-1, 72 h, mean ± S.E.M.
Method: as §1, §2

HT-29 cells = assay: SRB antiproliferative assay, monolayer culture; type: cell-based, human; details: Homo sapiens, HT-29, 72 h, mean ± S.E.M.
Method: as §1, §2

MKN-45 cells = assay: SRB antiproliferative assay, monolayer culture; type: cell-based, human; details: Homo sapiens, MKN-45, 72 h, mean ± S.E.M.
Method: as §1, §2

Mia-Paca-2 cells = assay: SRB antiproliferative assay, monolayer culture; type: cell-based, human; details: Homo sapiens, MIA PaCa-2, 72 h, mean ± S.E.M.
Method: as §1, §2

K562 cells = assay: SRB antiproliferative assay, monolayer culture; type: cell-based, human; details: Homo sapiens, K562, 72 h, mean ± S.E.M.
Method: as §1, §2

T1 sequence (P10721 26-976): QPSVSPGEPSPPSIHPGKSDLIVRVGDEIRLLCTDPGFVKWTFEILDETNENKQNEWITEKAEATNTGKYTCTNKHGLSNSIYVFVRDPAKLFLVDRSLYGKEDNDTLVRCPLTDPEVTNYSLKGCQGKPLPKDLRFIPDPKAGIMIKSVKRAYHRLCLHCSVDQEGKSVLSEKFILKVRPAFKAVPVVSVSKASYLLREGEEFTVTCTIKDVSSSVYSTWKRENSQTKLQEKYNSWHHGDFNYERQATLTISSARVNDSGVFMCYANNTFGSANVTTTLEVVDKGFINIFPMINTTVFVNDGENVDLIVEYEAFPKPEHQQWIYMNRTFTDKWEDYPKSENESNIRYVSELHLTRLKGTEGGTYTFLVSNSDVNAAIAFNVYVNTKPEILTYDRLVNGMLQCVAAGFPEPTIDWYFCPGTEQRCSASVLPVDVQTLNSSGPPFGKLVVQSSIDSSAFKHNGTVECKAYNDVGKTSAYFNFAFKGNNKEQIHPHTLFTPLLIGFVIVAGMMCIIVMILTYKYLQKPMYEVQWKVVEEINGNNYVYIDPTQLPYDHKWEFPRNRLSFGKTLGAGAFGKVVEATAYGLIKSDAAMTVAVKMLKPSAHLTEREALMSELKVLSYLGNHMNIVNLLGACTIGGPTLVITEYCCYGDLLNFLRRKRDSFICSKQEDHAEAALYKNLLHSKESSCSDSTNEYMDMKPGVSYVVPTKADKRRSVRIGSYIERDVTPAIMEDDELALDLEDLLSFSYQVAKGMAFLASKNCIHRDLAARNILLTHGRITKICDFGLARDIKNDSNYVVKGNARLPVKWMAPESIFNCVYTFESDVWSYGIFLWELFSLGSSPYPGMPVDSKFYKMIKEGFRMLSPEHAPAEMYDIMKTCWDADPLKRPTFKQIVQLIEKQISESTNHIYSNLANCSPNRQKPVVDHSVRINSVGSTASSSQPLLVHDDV

SMILES	Circularity and solidity of spheroids (AsPC-1 spheroids)	IC50 (AsPC-1 spheroids) [µM]	inhibition at 10 µM (KIT (h)) [%]	Late apoptosis (AsPC-1 cells [1]) [%]	Early apoptosis (AsPC-1 cells [1]) [%]	Percentage of total apoptosis (AsPC-1 cells [1]) [%]	IC50 (AsPC-1 cells [2]) [µM]	IC50 (EBC-1 cells) [µM]	IC50 (HT-29 cells) [µM]	IC50 (MKN-45 cells) [µM]	IC50 (Mia-Paca-2 cells) [µM]	IC50 (K562 cells) [µM]
Cc1ccc(Cn2cc(COc3ccc(C=NNc4ncnc5ccccc45)cc3)nn2)cc1 [Compound 8c, 2-(4-((1-(4-Methylbenzyl)-1H-1,2,3-triazol-4-yl)methoxy)benzylidene)-1-(quinazolin-4-yl)hydrazine]	significant reduction	32.7 ± 7.2	7	10.7	15.5	26.1	15.3 ± 2.3	19 ± 0.7	21 ± 4.7	22 ± 4.8	25.6 ± 2.4	31.5 ± 6.4
CC(C)(C)c1ccc(Cn2cc(COc3ccc(C=NNc4ncnc5ccccc45)cc3)nn2)cc1 [Compound 8h, 2-(4-((1-(4-Tert-butylbenzyl)-1H-1,2,3-triazol-4-yl)methoxy)benzylidene)-1-(quinazolin-4-yl)hydrazine]	significant reduction	36.6 ± 4.5	2	9.6	15.8	25.4	9.7 ± 1.9	6.1 ± 1	8.6 ± 1.3	12 ± 3.9	11.5 ± 0.8	34.4 ± 6.4

Reference: PMC10482942, “Novel quinazoline-1,2,3-triazole hybrids with anticancer and MET kinase targeting properties” (Scientific Reports, 2023)
